As usually defined, the IC50 is the midpoint of a concentration-inhibition curve.

Common to all, as to assay type: biochemical
The target of one test is PIM-1 (Homo sapiens, UniProt P11309). Briefly: Enzyme PIM-1 Assay (radiometric [33P]ATP incorporation into PIM2tide, filter plate). To be noted: 35 μM ATP, 7.5 μM PIM2tide, 0.25 nM PIM-1, 60 min at 22° C.; high dose 10 μM. As for the experimental part: (§1) The assay for the determination of PIM-1 activity is based on the incorporation of [^33P]PO4 from [γ-^33P]ATP into PIM2tide substrate and capture of the radiolabeled peptide onto a Whatman P81 (phosphocellulose) filter plate. The amount of radiolabeled product is then measured by liquid scintillation counting. The final buffer conditions were as follows: 20 mM K^+MOPS, pH 7.4, 10 mM MgCl2, 0.005% Tween-20, 1 mM DTT. Assay mixtures contained 35 μM [γ-^33P]ATP (20 μCi/mL), 7.5 μM PIM2tide and 0.25 nM PIM-1 in a total volume of 50 μL. Incubations were carried out for 60 min at 22° C. and quenched with 75 μL, of 200 mM H3PO4, filtered through a Whatman P81 plate and washed (1×200 μL and 5×100 μL) with 200 mM H3PO4. Fifty μL of liquid scintillation cocktail were then added per well, and the plate was counted for 30 s/well using a TopCount NXT.
(§2) Compounds were prepared at 50× the final concentration in DMSO by conducting 3-fold serial dilutions from a 500-μM intermediate dilution to give a 10-point dosing curve having a high dose of 10 μM. One-μL aliquots of these were then transferred to the assay mixtures above to give a final concentration of DMSO of 2%. A standard or reference compound was typically included on each assay plate to validate that plate. For each plate, percent of control (POC) values were calculated for each well. IC50's were estimated from the POC's using a standard 4-parameter logistic model. The IC50 is defined as the concentration of inhibitor at which the POC equals 50 for the fitted curve.

In test [1] the target is T1, GST-tagged recombinant full-length human Pim-2 (Homo sapiens, UniProt Q9P1W9).
T1 construct: GST-tagged recombinant full-length human Pim-2; GST
Briefly: PIM-2 Assay (as Example A with GST-tagged recombinant full-length human Pim-2). To be noted: 4 μM ATP, 1.0 μM PIM2tide, 1.5 nM Pim-2; high dose 10 μM. As for the experimental part:
as §1, §2
Assay was performed as described in Example A, using 4 μM [γ-^33P]ATP (20 μCi/mL), 1.0 μM PIM2tide and 1.5 nM GST-tagged recombinant full-length human Pim-2 in place of PIM-1.

Another test has as its target recombinant rat PIM-3 (Rattus norvegicus, UniProt O70444). Briefly: PIM-3 Assay (as Example A with recombinant rat PIM-3). The settings on record: 30 μM ATP, 3.75 μM PIM2tide, 0.5 nM PIM-3; high dose 10 μM. As for the experimental part:
as §1, §2
Assay was performed as described in Example A, using 30 μM [γ-^33P]ATP (20 μCi/mL), 3.75 μM PIM2tide and 0.5 nM recombinant rat PIM-3 in place of PIM-1.

T1 sequence (Q9P1W9 whole entry): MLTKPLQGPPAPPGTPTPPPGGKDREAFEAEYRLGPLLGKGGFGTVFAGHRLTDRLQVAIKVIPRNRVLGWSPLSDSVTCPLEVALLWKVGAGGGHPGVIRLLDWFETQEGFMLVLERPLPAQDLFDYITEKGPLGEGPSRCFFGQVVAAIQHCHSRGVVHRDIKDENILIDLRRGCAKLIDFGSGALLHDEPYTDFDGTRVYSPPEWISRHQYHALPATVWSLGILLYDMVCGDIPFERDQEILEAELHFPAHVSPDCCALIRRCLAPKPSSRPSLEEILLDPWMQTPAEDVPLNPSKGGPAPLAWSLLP
PIM-1, sequence (P11309 whole entry, species assumed): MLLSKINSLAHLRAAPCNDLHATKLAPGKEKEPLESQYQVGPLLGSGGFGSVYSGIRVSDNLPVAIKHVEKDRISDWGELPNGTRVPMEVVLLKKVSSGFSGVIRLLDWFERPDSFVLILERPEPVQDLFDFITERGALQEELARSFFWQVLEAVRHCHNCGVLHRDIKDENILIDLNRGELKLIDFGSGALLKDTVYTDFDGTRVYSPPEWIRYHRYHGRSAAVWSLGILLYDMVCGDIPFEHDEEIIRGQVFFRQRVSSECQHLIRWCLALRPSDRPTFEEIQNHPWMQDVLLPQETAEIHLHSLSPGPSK

As to `CC1(N)CCN(c2cccc3ccc(-c4nnc5ccccn45)nc23)CC1` [Example 26, 1-(2-([1,2,4]triazolopyridin-3-yl)quinolin-8-yl)-4-methylpiperidin-4-amine], the IC50 amounted to 21 nM on PIM-1, 613 nM in test [1] and 62 nM at recombinant rat PIM-3.
